From EP0316212B1 (priority 1987, dated 1989)
Where two headings read alike, the source gives them in different places.

Key:
[1] = test system: Cellules de rate; assay: Proliferation of mouse spleen cells (3H-thymidine incorporation); assay type: cell-based, souris; conditions: for inhibition at 200 µg/mL: read-out: pourcentage d'augmentation (+) ou d'inhibition (-) de la prolifération
Text: (§1) Les anticorps utilisés sont des anticorps monoclonaux (AM) naturels (N5-12, N5-17, MO-1, 62-1, D-23) et proviennent d'hybridomes préparés par fusion des cellules de rate de souris n'ayant reçu aucune immunisation au préalable ni aucune stimulation mitogénique, avec le myélome de souris X63-Ag8. Les hybridomes TNP11 et TNP9 proviennent de fusion des cellules de rate de souris immunisées avec du Ficoll-TNP. Ils ont été maintenus en culture dans le milieu RPMI complet contenant 10% de sérum de veau foetal. Les hybridomes ont été injectés à des souris Balb/c préalablement traitées au pristane dans le but d'obtenir des ascites. Les AM ont été utilisés en tant que surnageants de culture ou en tant qu'ascites ou après isolement par chromatographie d'affinité sur une colonne de DNP-Sépharose. Ces anticorps ont été testés par test immunoenzymatique sur différents antigènes immobilisés sur des plaques de polystyrène et révélés par un anticorps anti-Ig de souris couplé à la β-galactosidase.
(§2) Le TNP a été couplé à la sérumalbumine bovine (BSA) par la méthode de Little & Eisen : 1ml de BSA à 20mg/ml dans le tampon carbonate-bicarbonate, 0,1M, pH 9,5, est ajouté à 1ml d'une solution d'acide trinitrobenzène sulfonique à 2 mg/ml dans le même tampon. La réaction est arrêtée après 30 à 120 minutes selon la substitution voulue par élimination de l'excès de réactifs sur échangeur d'ions (Dowex 1 x 4) puis dialyse. Des préparations de BSA substituée avec soit 14 ou 30 molécules de TNP par molécule de BSA (TNP₁₄-BSA ou TNP₃₀-BSA) ont été utilisées.
(§3) Le DNP-Glycine (DNP-Gly) et le DNP-Lysine (DNP-Lys) proviennent des Laboratoires Sigma et sont solubilisés directement dans le milieu de culture.
(§4) Les cellules proviennent de rate ou de thymus de souris. Les souris sont tuées par dislocation cervicale et leur rate ou leur thymus prélevé stérilement sont déposés dans du milieu RPMI. Les cellules sont dissociées, lavées une fois avec du milieu puis les globules rouges sont lysés au chlorure d'ammonium (0,9%) pendant 1 minute à froid puis les cellules sont relavées dans le milieu complet.
(§5) Le milieu de culture utilisé est du RPMI 1640 contenant du sérum de veau foetal (5%), du pyruvate de sodium (1mM), de la L-glutamine (1mM), du 2-mercaptoethanol (0,05 mM), de la pénicilline (100»g/ml) et de la streptomycine (50»g/ml).
(§6) 2x10⁵ cellules de chaque population cellulaire ou 4x10⁵ de cellules de rate non fractionnées sont distribuées sous un volume final de 200»l dans des boîtes de culture de 96 puits à fond plat en présence ou non des différents stimulateurs (ou mitogènes)(40»g/ml de lipopolysaccharide W Salmonella typhosa 2»g/ml de concanavaline A, ou des surnageants de culture contenant les anticorps monoclonaux à différentes dilutions ou une solution de TNP-BSA à des concentrations finales allant de 200ng à 200»g/ml). Les cultures sont effectuées pendant 48 à 96 heures à 37°C dans une atmosphère de 5% de CO2.
Six à huit heures avant la fin de la culture, 100»l de surnageant sont prélevés de chaque puits de culture afin d'être testés quant à leur contenu en anticorps. 10»l d'une solution de ³H-thymidine (activité spécifique = […]) à 50 »Ci/ml sont ajoutés à la culture qui est ensuite poursuivie. Les cellules de chaque puits sont collectées sur du papier filtre à l'aide d'un collecteur automatique et, après sèchage, les filtres sont comptés dans un liquide scintillant.

[2] = test system: EMCV (Encephalomyocarditis Virus); assay: microbe, parasite or virus in culture; assay type: cell-based; conditions: Cardiovirus A
[3] = test system: virus de la chorioméningite lymphocytaire (CML); assay: organism not typed; assay type: cell-based; conditions: L929
[4] = test system: Cellules T; assay: Proliferation of mouse T cells (3H-thymidine incorporation); assay type: cell-based, souris; conditions: for inhibition at 200 µg/mL: T-cell, read-out: pourcentage d'augmentation (+) ou d'inhibition (-) de la prolifération
Text: as §1, §2, §3, §4
(§7) Les sous-populations de cellules B ou T sont ensuite séparées comme suit : • Sous-population T : les cellules T sont obtenues à partir de la population de cellules de la rate par élimination des cellules portant des Ig à leur surface (sous-population B) sur des anticorps anti-Ig de souris immobilisés soit sur des billes magnétiques (Magnogel)® soit sur des boites de Pétri. • Sous-population B : les cellules B sont obtenues après détachement mécanique des supports dur lesquels elles étaient fixées par l'intermédiaire des anticorps anti-Ig (après l'isolement des cellules T), ou après élimination de la sous-population des cellules T de la population totale des cellules de rate par un traitement avec un anticorps anti-cellules T suivi de complément de cobaye. • Thymocytes : les thymocytes sont dissociés dans le RPMI et les cellules isolées sont lavées dans le milieu complet avant d'être mises en culture.
as §5, §6
(§8) Six à huit heures avant la fin de la culture, 100»l de surnageant sont prélevés de chaque puits de culture afin d'être testés quant à leur contenu en anticorps. […]

[5] = test system: virus de la chorioméningite lymphocytaire (CML); assay: organism not typed; assay type: cell-based
[6] = test system: Cellules B; assay: Proliferation of mouse B cells (3H-thymidine incorporation); assay type: cell-based, souris; conditions: for inhibition at 200 µg/mL: B-cell, read-out: pourcentage d'augmentation (+) ou d'inhibition (-) de la prolifération
Text: as §1, §2, §3, §4, §7, §5, §6, §8

[7] = 12 (µg/ml), LPS* (mitogène ajouté après 48 heures)
[8] = 12 (µg/ml), conA* (mitogène ajouté après 48 heures)
[9] = 50 (µg/ml), LPS* (mitogène ajouté après 48 heures)
[10] = 50 (µg/ml), conA* (mitogène ajouté après 48 heures)

`O=C(O)CNc1ccc([N+](=O)[O-])cc1[N+](=O)[O-]` [DNP-glycine, DNP-Glycine] gave an inhibition at 200 µg/mL ([1]; LPS* (mitogène ajouté après 48 heures avec le dérivé NP)) of -60%, an inhibition at 200 µg/mL ([1]; M (milieu seul)) of -64% and an inhibition at 200 µg/mL ([1]; conA* (mitogène ajouté après 48 heures avec le dérivé NP)) of -50%. For the same compound, the “pourcentage d'augmentation (+) ou d'inhibition (-) de la prolifération” value [1, 7] was 0%, the “pourcentage d'augmentation (+) ou d'inhibition (-) de la prolifération” value ([1]; 12 (µg/ml), M (milieu seul)) was -10% and the “pourcentage d'augmentation (+) ou d'inhibition (-) de la prolifération” value [1, 8] was -30%. For the same compound, the “pourcentage d'augmentation (+) ou d'inhibition (-) de la prolifération” value [1, 9] was -20%, the “pourcentage d'augmentation (+) ou d'inhibition (-) de la prolifération” value ([1]; 50 (µg/ml), M (milieu seul)) was -30% and the “pourcentage d'augmentation (+) ou d'inhibition (-) de la prolifération” value [1, 10] was 0%. It also gave a minimal effective concentration ([2]; L929, 24 h, read-out: séroneutralise jusqu'à une concentration de) of 600 µg/mL, an inhibition at 30 µg/mL ([2]; L929, 0,03 mg/ml) of 0% and an inhibition at 300 µg/mL ([2]; L929, 0,3 mg/ml) of 32%. The inhibition at 600 µg/mL ([2]; L929, 0,6 mg/ml) was 62%, the inhibition at 70 µg/mL ([2]; L929, 0,07 mg/ml) was 0% and the inhibition at 150 µg/mL ([2]; L929, 0,15 mg/ml) was 20%. For the same compound, the inhibition at 1200 µg/mL ([2]; L929, 1,2 mg/ml) was 78%, the inhibition at 10 µg/mL [3] was 25% and the inhibition at 30 µg/mL [3] was 80%. For the same compound, the inhibition at 60 µg/mL [3] was 15%, the inhibition at 120 µg/mL [3] was 30% and the inhibition at 240 µg/mL [3] was 25%. For the same compound, the inhibition at 480 µg/mL [3] was 55%, the “pourcentage d'augmentation (+) ou d'inhibition (-) de la prolifération” value ([4]; 0,7 (µg/ml), M (milieu seul)) was “+50%” and the “pourcentage d'augmentation (+) ou d'inhibition (-) de la prolifération” value ([4]; 0,7 (µg/ml), conA* (mitogène ajouté après 48 heures)) was 0%. The “pourcentage d'augmentation (+) ou d'inhibition (-) de la prolifération” value ([4]; 3 (µg/ml), M (milieu seul)) was 0%, the “pourcentage d'augmentation (+) ou d'inhibition (-) de la prolifération” value ([4]; 3 (µg/ml), conA* (mitogène ajouté après 48 heures)) was -5% and the “pourcentage d'augmentation (+) ou d'inhibition (-) de la prolifération” value ([4]; 12 (µg/ml), M (milieu seul)) was 0%. The “pourcentage d'augmentation (+) ou d'inhibition (-) de la prolifération” value [4, 8] was -4%, the “pourcentage d'augmentation (+) ou d'inhibition (-) de la prolifération” value ([4]; 50 (µg/ml), M (milieu seul)) was “+30%” and the “pourcentage d'augmentation (+) ou d'inhibition (-) de la prolifération” value [4, 10] was -15%. It also gave an inhibition at 200 µg/mL ([4]; M (milieu seul)) of 4%, an inhibition at 200 µg/mL ([4]; conA* (mitogène ajouté après 48 heures)) of -45% and an inhibition at 10 µg/mL [5] of 10%. The inhibition at 30 µg/mL [5] was 17%, the inhibition at 60 µg/mL [5] was 34% and the inhibition at 120 µg/mL [5] was 36%. For the same compound, the inhibition at 240 µg/mL [5] was 54%, the inhibition at 480 µg/mL [5] was 63% and the “inhibition du virus (result in words)” value ([5]; ajouté à la culture cellulaire après l'infection virale) was “peut inhiber le virus même s'il est ajouté à la culture cellulaire après l'infection virale”. The “pourcentage d'augmentation (+) ou d'inhibition (-) de la prolifération” value ([6]; 3 (µg/ml), LPS* (mitogène ajouté après 48 heures)) was -7%, the “pourcentage d'augmentation (+) ou d'inhibition (-) de la prolifération” value ([6]; 3 (µg/ml), M (milieu seul)) was -25% and the “pourcentage d'augmentation (+) ou d'inhibition (-) de la prolifération” value [6, 7] was -40%. The “pourcentage d'augmentation (+) ou d'inhibition (-) de la prolifération” value ([6]; 12 (µg/ml), M (milieu seul)) was -50%, the “pourcentage d'augmentation (+) ou d'inhibition (-) de la prolifération” value [6, 9] was -64% and the “pourcentage d'augmentation (+) ou d'inhibition (-) de la prolifération” value ([6]; 50 (µg/ml), M (milieu seul)) was -60%. The inhibition at 200 µg/mL ([6]; LPS* (mitogène ajouté après 48 heures)) was -80% and the inhibition at 200 µg/mL ([6]; M (milieu seul)) was -90%.
